Measurements reported in US11912697B1, “1,3-benzothiazol-2-yl-N′-[(pyridine-3-carbonyl)oxy]ethanimidamide as an antitumor and antimicrobial compound” (King Faisal University, priority 2023, dated 2024).

What was measured:
[1] = test system: human prostate cancer cells (PC3); assay: Cytotoxicity by SRB assay, PC3 cells; format: cell-based; conditions: PC-3 cells; for IC50: mean ± SD
Method: (§1) The human prostate cancer cells (PC3) and human osteosarcoma cells (MG-63) were obtained from Nawah Scientific Inc. (Mokatam, Cairo, Egypt) and cultured in DMEM (Dulbecco's modified eagle's medium), Gibco, USA, supplemented with fetal bovine serum (FBS) at a concentration of 10% and 100 U/mL of penicillin and streptomycin (PS). The Cells were incubated at 37° C. in a humidified environment that contained 5% CO2.
(§2) Cells were seeded in 96-well plates as aliquots of 100 μL cell suspension and incubated in a complete media for 24 h. Afterward, cells were treated with N′-[(2-chlorobenzoyl)oxy]-1,3-benzothiazole-2-carboximidamide at diverse concentrations ranging from 0.01 μM to 100 μM for 72 h. Then, cells were fixed at 4° C. for one hour with 150 μL of 10% trichloroacetic acid (TCA). After washing the cells five times with distilled water, 70 μL of sulforhodamine (SRB) solution (0.4% w/v) was added and incubated for 10 min at room temperature in a dark place. Cells were washed with 1% acetic acid three times and allowed to air-dry. Then, 150 μL of Tris pH 10.5 (10 mM) was added, and the absorbance was measured at 540 nm using a BMG LABTECH®-FLUOstar Omega microplate reader (Ortenberg, Germany). Half maximal inhibitory concentrations (IC50) values were calculated for each experiment using GraphPad Prism 6 software. IC50 values were reported as mean […] SD.
(§3) The inhibition was calculated using the following equation: Inhibition %=100−Average Viability

[2] = test system: human osteosarcoma cells (MG-63); assay: Cytotoxicity by SRB assay, MG-63 cells; format: cell-based; conditions: for IC50: mean ± SD
Method: as §1, §2, §3

[3] = test system: Bacillus cereus, Staphylococcus aureus, Pseudomonas aeruginosa, Escherichia coli, Aspergillus flavus, Chrysosporium keratinophilum; assay: Agar plate disc-diffusion antimicrobial screen; format: cell-based; conditions: 10 μL of 10 mg/mL in DMSO per disc, result in words only
Method: The agar plate disc-diffusion method was applied. Sterilized filter papers (6 mm in diameter) were wetted with 10 μL of a solution of each compound to be tested, containing 10 mg/mL in DMSO, and the discs were allowed to air dry. The discs were then placed onto the surface of agar plates (nutrient agar for bacteria and Sabouraud's dextrose agar for fungi) and seeded with the test organism. Each plate contained 15 mL of the agar medium, previously seeded with 0.2 mL of the broth culture of each organism pre-grown for 18 h. The plates were incubated at 37° C. for 48 h, and 72 h for fungi. The inhibition zones were measured in mm. Discs impregnated with DMSO were used as a control, and its inhibition zone was subtracted from the tested compound actual inhibition zone.
In particular, the present 1,3-benzothiazol-2-yl-N′-[(pyridine-3-carbonyl)oxy]ethanimidamide was screened against gram positive bacteria, namely Bacillus cereus and Staphylococcus aureus, and gram-negative bacterial strains, namely Pseudomonas aeruginosa and Escherichia coli, while the antifungal activity was screened against Aspergillus flavus and Chrysosporium keratinophilum.

melting point | SMILES | IC50 ([1]; Homo sapiens, PC-3, 72 h) | IC50 ([2]; Homo sapiens, MG-63, 72 h) | Prostate Cancer (PC-3) Inhibition % ([1]; 10 μg/ml, 72 h) | inhibition at 10 µg/mL ([1]; Homo sapiens, PC-3, 72 h, 10 μg/ml) | inhibition at 100 µg/mL ([1]; Homo sapiens, PC-3, 72 h, 100 μg/ml) | IC50 ([1]; 72 h) | IC50 ([2]; 72 h) | inhibition at 10 µg/mL ([2]; Homo sapiens, 10 μg/ml, 72 h) | inhibition at 100 µg/mL ([2]; Homo sapiens, 100 μg/ml, 72 h) | antimicrobial activity [3]
 | COc1cccc2c1C(=O)c1c(O)c3c(c(O)c1C2=O)C[C@@](O)(C(=O)CO)C[C@@H]3O[C@H]1C[C@H](N)[C@H](O)[C@H](C)O1 [DOX, Doxorubicin, reference compound] | 7.6 ± 0.45 µM | 9.4 ± 1.1 µM |  |  |  |  |  |  |  | 
150 to 152 °C | N/C(Cc1nc2ccccc2s1)=N\OC(=O)c1cccnc1 [Present Compound, 1,3-benzothiazol-2-yl-N′-[(pyridine-3-carbonyl)oxy]ethanimidamide] | < 4 µM | < 4 µM | 96.21% | 96% | 97% | 2.71 ± 0.03 µM | 3.59 ± 0.2 µM | 91.2% | 92.1% | high levels of antimicrobial activity
 | NC(=NOC(=O)c1ccccc1Cl)c1nc2ccccc2s1 [N′-[(2-chlorobenzoyl)oxy]-1,3-benzothiazole-2-carboximidamide] |  |  |  |  |  |  |  |  |  | excellent antimicrobial activities
